Experimental data as given in patent US20050187409A1, “Inhibitors of RNase P proteins as antibacterial compounds” (priority 2003, published 2005).
Converted amounts (≈) assume the structure as drawn.

Experiments:
[1] = system: peripheral blood mononuclear cells (PBMC); assay: Cellular toxicity assay (MTS) on PBMC; assay type: cell-based, human; conditions: 24 hours incubation, MTS reagent; read-out: PBMC's TC50
Description: Compounds of the invention (see Table 6) were assayed for cellular toxicity as follows. Whole blood was drawn from a volunteer, and the red cells were separated from the buffy coat cells by centrifugation over ficoll-paque. The resulting peripheral blood mononuclear cells (PBMC) were collected from the interface and washed extensively with PBS by centrifugation to remove platelets and cellular debris. The cells were then plated in 96-well tissue culture plates at a density of 5×10^5 cells per mL at 200 μL per well. After an hour incubation, the candidate compounds were added at the appropriate concentrations diluted from DMSO stocks into assay buffer (RPMI medium supplemented with 10% FCS). The cells were incubated at 37° C., 100% humidity and 5% CO2 for 24 hours at which time MTS reagent was added per the manufacturer's (Promega) instructions. After 2-3 hours incubation the optical density of the wells was read on a spectrophotometer. […] The data are evaluated using equation 2 as described in Example 17, where bacterial cells are replaced by PBMC cells in the measurements. The data describes the toxicity of these compounds to a representative human cell population (PBMC's).

N. gonorrhoeae = assay: Bacterial inhibition assay (growth, MTS readout); assay type: cell-based; conditions: CAMHB-3% LHB medium, 35° C., 5% CO2, 24 hours
Description: (§1) Compounds of the invention (see Table 5) were assayed for their ability to inhibit bacterial growth. Compounds were diluted from 10 mM DMSO stocks to 3 mM and 1 mM in DMSO. The compounds were further diluted from these stocks into saline for 200, 120, and 20 μM stocks. Control antibiotics were diluted similarly. Overnight cultures of bacteria were made in the following manner. N. gonorrhea was streaked onto a chocolate agar plate and incubated at 35° C./5% CO2. Rather than make an overnight culture of S. pyogenes, a loopful of S. pyogenes from a blood plate or a stock plate was used the following day for direct cell suspension.
(§2) On the following day bacteria were prepared by dilution into saline with O.D. […] readings taken to determine the concentration of the bacteria. CFUs (colony forming units) were determined using the formula: CFU/mL=OD625×(1.5×10^8 CFU/mL/OD McFarland std)×dilution. The four bacterial cultures were diluted initially to 5.5×10^7 CFU/mL. The bacteria were then further diluted into medium to 5.5×10^5 CFU/mL for S. pyogenes and 5.5×10^6 CFU/mL for N. gonorrhea. S. pyogenes and N. gonorrhea were grown in CAMHB-3% LHB medium. The bacteria were added one per plate at 200 μL per well. Compounds were added in 10 μL aliquots for final concentrations of 10, 3, and 1 μM in duplicate. Control antibiotics, penicillin for S. pyogenes and ciprofloxacin for N. gonorrhea, were added from 0.8 mg/ml to 0.003 mg/ml. Plates were incubated at 35° C. with O2 for 16-20 hours for S. pyogenes, and read at OD665 in a Victor2 plate reader. Plates were incubated at 35° C. with 5% CO2 for 24 hours for N. gonorrhea at which time 40 μL of MTS reagent is added per well and incubated for 1 hour in same incubator. The plates were read at OD490. Compounds were tested at 1 μM, 3 μM, and 10 μM concentrations. The results, which are expressed as a percentage of the control, were calculated using equation 2. In this equation, O.D. is optical density; (O.D. compounds+bacteria) is the optical density observed for bacteria grown in the presence of a compound of the invention; (O.D. blank) is the optical density in the absence of bacteria; and (O.D. bacteria) is the optical density observed for bacteria growing uninhibited. Other RNase P inhibitors may be tested similarly using any bacteria of interest. [formula]

[2] = target: N. gonorrhea RNase P (M1 RNA + C5 protein) (Neisseria gonorrhoeae, UniProt Q5F4W3); assay: Time resolved fluorescence (TRF) RNase P inhibition assay; assay type: biochemical; conditions: 30 min enzyme reaction, ptGLN substrate; read-out: N. gonorrhoeae TRF IC50(μM) (Example 15)
Source text: The ability of compounds of the invention to inhibit RNase P enzymes can be assessed by standard techniques. For example, the cleavage of ptRNA^Gln by the enzyme N. Gonorrhea RNase P, can be monitored in the presence and absence of a candidate compound as described in the Example 15. The progress of the RNase P-mediated cleavage reaction can be assessed by measuring the […] hybridized to the cleaved substrate.
Time Resolved Fluorescence RNase P Inhibition Assay
96-well Nunc MaxiSorp FluoroNunc plates were coated with 50 μl/well of 1 μg/ml of streptavidin in base buffer (150 mM KCl, 5 mM MgCl2, 50 mM Tris, pH 7.6) and incubated overnight. The plates were washed using TRF.96 protocol, and then blocked with 150 μl of a 1 mg/ml BSA solution in base buffer and incubated with shaking for sixty minutes. The plates were then washed twice with base buffer plus 0.01% Tween20. 50 μl of 40 nM T17-bt (biotinylated DNA oligonucleotide complementary to the RNaseP substrate leader sequence used to capture intact RNaseP substrate) was then added to all wells, and the plates were incubated with shaking for 1 hr.
A 0.4 nM solution of N. gonorrhea M1 RNA was made from a 1 μM stock solution. A 0.5 nM solution of N. gonorrhea C5 protein is made by diluting a 10 μM stock. ΔUL-ptGLN UTP-bt (10 μM stock) was diluted into PA buffer for a concentration of 40 nM.
Compounds were serially diluted in DMSO from 20 mM stocks to 6, 2, 0.6, 0.2, and 0.06 mM dilutions. These titrations were then diluted (2 μl to 100) in PA buffer, and 12.5 μl of each concentration was added in duplicate to a 96-well V-bottom polypropylene plate. The highest concentration was put in row G and the lowest in row B. Rows A & H received 12.5 μl of DMSO/PA buffer.
The enzyme reaction was initiated in the V-bottom polypropylene plates containing compound dilutions by adding 12.5 μl of the N. gonorrhea M1 solution to rows A-G. PA buffer was added to row H. 12.5 μl of the C5 solution was added similarly to the M1 solutions. 12.5 μl of the substrate solution was then added to all wells. The plates were incubated for 30 minutes at which time 12.5 μl of stop buffer was added to all wells. (Stop buffer: 500 μg/ml polyC/50 nM SA-Eu in 335 mM MgCl2 PA buffer).
The T17-biotin-coated plate was washed three times, and 37.5 μl of 75 mM MgCl2 PA buffer was added to each well. After 30 minutes incubation with the stop buffer, 12.5 μl from all of the enzyme reaction wells was transferred to the T17 plates. The plates were then incubated for 1.5 hr at room temperature with shaking. The plates were washed three times and 40 μl of Delfia enhancement solution (Wallac Oy) was added to all wells. The plates were then read on the Victor 2 plate reader.

[3] = target: T1, N. gonorrhoeae RNase P holoenzyme (Neisseria gonorrhoeae, UniProt Q5F4W3); assay: biochemical; conditions: 32P-labelled pGln substrate, room temperature; read-out: N. gonorrhoeae Gel assay IC50(μM) (Example 16)
T1 sequence (Q5F4W3 1-121): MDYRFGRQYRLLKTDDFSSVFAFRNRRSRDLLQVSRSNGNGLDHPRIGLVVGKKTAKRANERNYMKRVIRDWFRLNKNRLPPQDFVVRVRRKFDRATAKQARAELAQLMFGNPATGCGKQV
Description: RNase P Inhibition Polyacrylamide Gel Assay
The substrate, the precursor of tRNA^Gln, (pGln), from Synechocystis (Pascual and Vioque, 1999), was synthesized in vitro from the corresponding cDNA by T7 RNA polymerase in the presence of α^32P-GTP. Each control RNase P reaction of 10 μl contained 50 mM Tris-HCl (pH 7.8), 10 mM MgCl2, 100 mM NH4Cl, 1 mM dithiothreitol, and 0.4-1.0 pmol pGln substrate, radiolabeled to a specific activity of 1000-10,000 cpm/pmol. The reaction mixture, containing 0.1-1 nM holoenzyme, was incubated for 5-60 min at room temperature (18-24° C.), and the reaction was terminated by addition of an equal volume of 40 mM EDTA/8 M urea. The samples were electrophoresed in denaturing 8% polyacrylamide gels. The activity was quantified by exposure of the gel to a phosphorimaging screen. For test reactions that require the addition of compounds, the RNA subunits were pre-incubated with compound for 10 min at room temperature in the presence of buffer, followed by addition of the protein subunit. After a further 10 minutes of incubation, the radiolabeled substrate was added, and the reaction initiated. Products were analyzed as just described. The IC50 was the concentration of compound that was required to inhibit RNase P activity by 50%.

S. pyogenes = assay: Bacterial inhibition assay (growth, OD readout); assay type: cell-based; conditions: CAMHB-3% LHB medium, 35° C., 16-20 hours
Description: as §1, §2

CC(=NNC(=N)N)c1cccc(NC(=O)[C@H](Cc2ccc(-c3ccccc3)cc2)NC(=O)c2cccc(I)c2)c1 [MES 10908, Guanylhydrazone of (S)-1-(3-iodobenzoyl)-N-(3-acetylphenyl)biphenyl-alaninamide] was tested, and the CC50 [1] was 5 µM, the MIC (N. gonorrhoeae) was >100 µM and the IC50 [2] was 5 µM. For the same compound, the IC50 [3] was 6 µM and the MIC (S. pyogenes) was 10 µM (≈ 6.45 µg/mL).
